According to patent publication US8735129B2, “Ginsenoside glycosidase derived from the genus Terrabacter, and use thereof” (Korea Research Institute of Bioscience and Biotechnology, priority 2009, dated 2014):
Like-named read-outs stand apart in the source and are kept apart here.

Tests used:
recombinant Bgl-gyp17 [1] = test: Enzymatic hydrolysis of PPD-type ginsenosides (TLC, HPLC, NMR); assay type: biochemical, Terrabacter ginsenosidimutans Gsoil 3082; conditions: 0.2 U enzyme, 50 mM sodium phosphate pH 7.0, 37° C., hydrolysis of glucoses at C-3
Experimental: In order to analyze the specificity and selectivity of the recombinant enzyme for the hydrolysis of glucose at the C-3 and C-20 positions of PPD-type ginsenoside, ginsenoside Rb1, Rb2, Rc, Rd, and Rg3 were used as substrates. Each reaction mixture containing 0.2 U enzyme, 50 mM sodium phosphate buffer 0.1% (w/v) (pH 7.0), and the substrate was incubated at 37° C. Each sample was withdrawn at regular intervals, and an equal volume of water-saturated butanol was added to stop the reaction. The n-butanol fraction was evaporated to dryness, and any residual material was dissolved in CH3OH and then examined by TLC HPLC or NMR analysis.

[2] = cited from earlier work
[3] = test system: F9 teratocarcinoma stem cells; conditions: cited from earlier work
[4] = test system: B16 melanoma, MK-1 (stomach cancer cell), ovarian cancer cell (HRA); conditions: MK-1, HRA; cited from earlier work
[5] = test system: refolded recombinant ginsenoside glycosidase; test: Reaction of refolded recombinant ginsenoside glycosidase with Rb1, TLC analysis; assay type: biochemical, Terrabacter ginsenosidimutans Gsoil 3082; conditions: 1 mg/ml Rb1 solution in 50 mM sodium phosphate
Experimental: E. coli C41(DE3) containing an overexpressing plasmid was cultured in LB-ampicillin media at 37° C. when the OD value at 600 nm reached 0.6, and treated with 0.5 mM isopropyl-β-D-thiogalactopyranoside for 12 hours to induce protein expression. The bacterial cells were obtained by centrifugation at 4° C. and 5,000×g for 20 minutes. The cell pellet was resuspended in a solution (suspension) consisting of 50 mM sodium phosphate, 5 mM EDTA, and 1% Triton X-100 (pH 7.0) and subjected to ultrasonification. Since the recombinant ginsenoside glycosidase was expressed as an insoluble inclusion body, the sonicated lysate was centrifuged at 4° C. and 20,000×g for 30 minutes to obtain a pellet. The pellet was washed twice with a suspension solution in the absence of Triton X-100. The inclusion body was stirred in a solution containing 50 mM sodium phosphate, 5 mM EDTA, and 8 M urea (pH 8.0) at room temperature overnight for solubilization. After centrifugation (20,000×g, 30 minutes, 4° C.), the solubilized protein was diluted with 40 volumes of a refolding buffer containing 50 mM sodium phosphate, 5% glycerol, 0.05% polyethylene glycol and 0.5 mM sodium chloride at pH 7.0, and refolding of the protein was performed at 4° C. for 24 hours. […] Protein similarity was determined by 10% SDS-PAGE and Coomassie Blue staining. […]

recombinant Bgl-gyp17 [6] = test: Enzymatic hydrolysis of PPD-type ginsenosides (TLC, HPLC, NMR); assay type: biochemical, Terrabacter ginsenosidimutans Gsoil 3082; conditions: 1 mg/ml ginsenoside Rb1, enzyme concentrations lower than 0.01 mg/ml
tumor cells = conditions: cited from earlier work
[7] = Specific activity of the enzyme with pNPGlc; assay type: biochemical
Experimental: Specific activity was measured using 90 μl of 50 mM sodium phosphate buffer containing 2.0 mM pNPGlc (p-nitrophenyl-β-D-glucopyranoside; Sigma) at pH 7.0, and 10 μl of the diluted purified enzyme was treated at 37° C. for 20 minutes before initiation of the reaction, followed by incubation. 0.1 ml of 1 M Na2CO3 was treated for 5 minutes to terminate the reaction, and the secretion of p-nitrophenol was immediately measured at 405 nm. One unit of activity was defined as the amount of enzyme that released 1 μmol of p-nitrophenol per minute. Specific activity is expressed in units per milligram protein. Protein concentration was measured using a Bio-Rad protein staining reagent according to the protocol. All analyses were performed at least three times.

[8] = Kinetic studies (Km, Vmax) with pNPGlc; assay type: biochemical; conditions: hydrolysis of pNPGlc, 37° C., Cleland program
Experimental: Kinetic studies were performed with freshly purified enzyme using pNPGlc at the concentrations from 0.1 mM to 0.6 mM. Its absorbance at 405 nm was monitored at 37° C. for 20 minutes. The resulting data were used to determine Km and Vmax using the Enzyme Kinetics Program reported by Cleland.
In order to examine the substrate specificity of Bgl-gyp17, it was incubated in 50 mM sodium phosphate buffer containing 2.0 mM βα and β-type p-NP (p-nitrophenyl) and oNP (O-nitrophenyl)-glycosidase at pH 7.0 and 37° C. […] The Km and Vmax for the hydrolysis of pNPGlc by ginsenoside glycosidase were determined using 0-2 mM substrate and the enzyme kinetics program reported by Cleland. The values measured by the program were 4.24 mM and 0.10 mmol*min^−1*mg of protein^−1 for pNpGlc.

[9] = assay type: biochemical; conditions: after incubation at 45° C. for 30 minutes
Experimental: The thermo-dependence of the activity was assayed in 50 mM potassium phosphate buffer at various temperatures ranging from 4 to 90° C. Thermostability was tested by incubating aliquots of the enzyme in 50 mM potassium phosphate buffer for 30 minutes at different temperatures. After cooling the sample on ice for 10 minutes, residual activity was determined by a standard analysis;
The pH effect on the enzymatic activity was measured using 2.0 mM pNPGlc in the following buffer (50 mM):
Buffer: pH range of 2 to 10: KCl—HCl (pH 2), glycine-HCl (pH 3), sodium acetic acid (pH 4 and 5), sodium phosphate (pH 6 and 7), Tris-HCl (pH 8 and 9) and glycine-sodium hydroxide (pH 10).
The enzyme was incubated in each of the above mentioned buffers at 4° C. for 24 hours, and then pHPGlc was analyzed in 50 mM potassium buffer to measure the enzymatic stability according to pH change. The activity was measured by the above mentioned method.
The results were represented as an activity probability obtained at the optimum pH.
The temperature-dependent activity in the 50 mM potassium phosphate buffer was analyzed within the temperature range of 4-90° C. using 2.0 mM pNPGlc at the optimum pH for 5 minutes. […] The sample was cooled in ice for 10 minutes, and the residual activity was measured by pNPGlc analysis.

## CC(C)=CCC[C@](C)(O[C@@H]1O[C@H](CO[C@@H]2OC[C@H](O)[C@H](O)[C@H]2O)[C@@H](O)[C@H](O)[C@H]1O)[C@H]1CC[C@]2(C)[C@@H]1[C@H](O)C[C@@H]1[C@@]3(C)CC[C@H](O[C@@H]4O[C@H](CO)[C@@H](O)[C@H](O)[C@H]4O[C@@H]4O[C@H](CO)[C@@H](O)[C@H](O)[C@H]4O)C(C)(C)[C@@H]3CC[C@]12C [ginsenoside Rb2]
Recombinant Bgl-gyp17 [1]
  conversion of the ginsenoside by the enzyme (product): C—Y (compound Y)
Recombinant Bgl-gyp17 [1]; listed as Rb2
  conversion of the ginsenoside by the enzyme (product): C—Y
[2]; in vivo, po
  in vivo absorption: very low in vivo absorption

## CC(C)=CCC[C@](C)(O)[C@H]1CC[C@]2(C)[C@@H]1[C@H](O)C[C@@H]1[C@@]3(C)CC[C@H](O[C@@H]4O[C@H](CO)[C@@H](O)[C@H](O)[C@H]4O)C(C)(C)[C@@H]3CC[C@]12C [Rh2, ginsenoside Rh2]
Recombinant Bgl-gyp17 [1]
  conversion of the ginsenoside by the enzyme (product): converted Rh2 into PPD and PPD
[3]
  induction of differentiation: strongly induce the differentiation
[4]
  inhibitory effects on proliferation: strong inhibitory effects

## CC(C)=CCC[C@](C)(O[C@@H]1O[C@H](CO[C@@H]2O[C@H](CO)[C@@H](O)[C@H](O)[C@H]2O)[C@@H](O)[C@H](O)[C@H]1O)[C@H]1CC[C@]2(C)[C@@H]1[C@H](O)C[C@@H]1[C@@]3(C)CC[C@H](O[C@@H]4O[C@H](CO)[C@@H](O)[C@H](O)[C@H]4O[C@@H]4O[C@H](CO)[C@@H](O)[C@H](O)[C@H]4O)C(C)(C)[C@@H]3CC[C@]12C [ginsenoside Rb1]
Recombinant Bgl-gyp17 [1]
  conversion of the ginsenoside by the enzyme (product): C—K
[5]
  conversion of the ginsenoside (TLC): converted ginsenoside Rb1 into gyp XVII
Recombinant Bgl-gyp17 [6]
  hydrolysis of the ginsenoside: completely hydrolyzed to produce gyp XVII
[2]; in vivo, po
  in vivo absorption: very low in vivo absorption

## CC(C)=CCC[C@](C)(O[C@@H]1O[C@H](CO)[C@@H](O)[C@H](O)[C@H]1O)[C@H]1CC[C@]2(C)[C@@H]1[C@H](O)C[C@@H]1[C@@]3(C)CC[C@H](O[C@@H]4O[C@H](CO)[C@@H](O)[C@H](O)[C@H]4O)C(C)(C)[C@@H]3CC[C@]12C [F2, ginsenoside F2]
Recombinant Bgl-gyp17 [1]
  conversion of the ginsenoside by the enzyme (product): further converted into C—K (compound K) and C—K
Tumor cells
  effect on proliferation of tumor cells: suppressing the proliferation of tumor cells
Tumor cells; tumor cells and bacteria
  effect on multi-drug resistance: reversing multi-drug resistance

## CC(C)=CCC[C@](C)(O)[C@H]1CC[C@]2(C)[C@@H]1[C@H](O)C[C@@H]1[C@@]3(C)CC[C@H](O)C(C)(C)[C@@H]3[C@@H](O[C@@H]3O[C@H](CO)[C@@H](O)[C@H](O)[C@H]3O)C[C@]12C [Rh1]
[3]
  induction of differentiation: strongly induce the differentiation
[4]
  inhibitory effects on proliferation: strong inhibitory effects

## CC(C)=CCC[C@](C)(O[C@@H]1O[C@H](CO[C@@H]2O[C@@H](CO)[C@H](O)[C@H]2O)[C@@H](O)[C@H](O)[C@H]1O)[C@H]1CC[C@]2(C)[C@@H]1[C@H](O)C[C@@H]1[C@@]3(C)CC[C@H](O[C@@H]4O[C@H](CO)[C@@H](O)[C@H](O)[C@H]4O[C@@H]4O[C@H](CO)[C@@H](O)[C@H](O)[C@H]4O)C(C)(C)[C@@H]3CC[C@]12C [Rc, ginsenoside Rc]
Recombinant Bgl-gyp17 [1]
  conversion of the ginsenoside by the enzyme (product): C-Mc (compound Mc) and C-Mc
[2]; orally administered into the human body
  in vivo absorption: very low in vivo absorption

B1: Bgl-gyp17: recombinant ginsenoside glycosidase from Terrabacter Gsoil 3082, SEQ ID NO. 1, 589 residues (protein, listed as Terrebacter sp.)
chain: MDPYEDPRLPVEVRVEDLLGRLSLEEKVGLMFQTVIEAGSDGTVLEHPGSISKSPTSTVVLDKHLTHFNVHALDDPRMAARWSNALQALAERTPHGIPVTVSTDPRHAFIENVGVSFSAGAFSQWPEPLGLAALRDADAVRRFADIARQEYVAVGIRAALHPTLDLATEPRWARQAGTFGQDPDLVTELGVAYLKGFQGDSLGSGSVACTSKHFPGGGPQKDGEDAHFPYGREQVYPGGRFADHLKPFPPIIEAGTAGIMPYYGMPVDLVVDGVEIEPIGFGYNKQVVTGLLREKLGYDGVVVTDWELVNDNHVGDQVLPARAWGVEHLDPHGRMELILEAGADQFGGEECVEILLDLVAQGRVTEARVDESARRILAVKFRLGLFENPYVDEDEAAATVGRDDFREEGYAAQARSVTVLHHEGGRLPLEHGLRIYAEQVSPEAVARHGKLVDRPEDADVAVVRLTAPFDPRSDLFLESWFHQGSLDFPPGLVARLERIAAVCPLVVDVVLDRPAVLTPLLRFASAVVGSFGSCDDALLDALTGTIAPVGRLPFDLPRSMDQVRAHGEDVPGYDDPLFPFGHGLRLDTE
modifications: PEPTIDE (1)..(589) amino acid sequence of Bgl-gyp17
notes: 1, 589 residues
[7]; control without metal ions or reagents, Table 5
  specific activity at 100%: ^aThe specific activity at 100% was 44.3 U/mg.
[7]; purification step: Crude extract
  Specific activity (U/mg): 23.4 U/mg
[7]; purification step: DEAE-cellulose purification
  Specific activity (U/mg): 65.8 U/mg
[7]; purification step: Ni purification
  Specific activity (U/mg): 65.0 U/mg
[8]
  Km: 4.24 mM
  Vmax: 0.10 mmol*min^−1*mg of protein^−1
[9]
  loss of activity: approximately 32%
